Experimental data: the supplement of paper PMC10307832

Legend:
Test in all cases: relative viability (nuclei count vs DMSO), 5 days (fraction); higher = more cells survive
[1] = compound: O[C@H]1CC[C@H](Nc2ncc3nc(Nc4c(F)cc(F)cc4F)n([C@H]4CCOC4)c3n2)CC1 [Tanzisertib] + CC(=O)c1c(C)c2cnc(Nc3ccc(N4CCNCC4)cn3)nc2n(C2CCCC2)c1=O [Palbociclib] (partner 0.5 µM)
Method in brief: (§1)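 Lung cancer cell lines in 1536-well plates got either a single drug or a fixed anchor-drug dose together with five library-drug doses (not always all listed) in √10 steps, by pin tool, on the day after seeding. Nuclei were counted after 5 days, and relative viability is the treated-to-vehicle ratio of nuclei counts. Values are medians of duplicate plates.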

[2] = compound: C1CNCCC1C2=CC(=NN2)C3=CC=NC=C3 + CS(=O)(=O)CCNCc1ccc(-c2ccc3ncnc(Nc4ccc(OCc5cccc(F)c5)c(Cl)c4)c3c2)o1 [Lapatinib] (partner 2 µM)
Method in brief: as §1

Tanzisertib + Trametinib = compound: O[C@H]1CC[C@H](Nc2ncc3nc(Nc4c(F)cc(F)cc4F)n([C@H]4CCOC4)c3n2)CC1 [Tanzisertib] + CC(=O)Nc1cccc(-n2c(=O)n(C3CC3)c(=O)c3c(Nc4ccc(I)cc4F)n(C)c(=O)c(C)c32)c1 [Trametinib] (partner 0.02 µM)
Method in brief: as §1

Tanzisertib + Crizotinib = compound: O[C@H]1CC[C@H](Nc2ncc3nc(Nc4c(F)cc(F)cc4F)n([C@H]4CCOC4)c3n2)CC1 [Tanzisertib] + C[C@@H](Oc1cc(-c2cnn(C3CCNCC3)c2)cnc1N)c1c(Cl)ccc(F)c1Cl [Crizotinib] (partner 1 µM)
Method in brief: as §1

## LXF-289
[1]; first compound 0.08 µM
  relative viability: 0.596
[1]; first compound 0.253 µM
  relative viability: 0.592
[1]; first compound 0.8 µM
  relative viability: 0.647
[1]; first compound 2.53 µM
  relative viability: 0.574
[1]; first compound 8 µM
  relative viability: 0.65
[2]; first compound 0.08 µM
  relative viability: 0.934
[2]; first compound 0.8 µM
  relative viability: 0.937
[2]; first compound 2.53 µM
  relative viability: 0.864
[2]; first compound 8 µM
  relative viability: 0.91
Tanzisertib + Trametinib; first compound 0.08 µM
  relative viability: 0.694
Tanzisertib + Trametinib; first compound 0.253 µM
  relative viability: 0.691
Tanzisertib + Trametinib; first compound 0.8 µM
  relative viability: 0.748
Tanzisertib + Trametinib; first compound 2.53 µM
  relative viability: 0.663
Tanzisertib + Trametinib; first compound 8 µM
  relative viability: 0.82
Tanzisertib + Crizotinib; first compound 0.08 µM
  relative viability: 0.935
Tanzisertib + Crizotinib; first compound 0.253 µM
  relative viability: 0.734
Tanzisertib + Crizotinib; first compound 0.8 µM
  relative viability: 0.836
Tanzisertib + Crizotinib; first compound 2.53 µM
  relative viability: 0.815
Tanzisertib + Crizotinib; first compound 8 µM
  relative viability: 0.854

## HCC-827
[1]; first compound 0.08 µM
  relative viability: 0.533
[1]; first compound 0.253 µM
  relative viability: 0.468
[1]; first compound 0.8 µM
  relative viability: 0.475
[1]; first compound 2.53 µM
  relative viability: 0.429
[1]; first compound 8 µM
  relative viability: 0.24
[2]; first compound 0.08 µM
  relative viability: 0.207
[2]; first compound 0.8 µM
  relative viability: 0.174
[2]; first compound 2.53 µM
  relative viability: 0.22
[2]; first compound 8 µM
  relative viability: 0.166
Tanzisertib + Trametinib; first compound 0.08 µM
  relative viability: 0.556
Tanzisertib + Trametinib; first compound 0.253 µM
  relative viability: 0.552
Tanzisertib + Trametinib; first compound 0.8 µM
  relative viability: 0.481
Tanzisertib + Trametinib; first compound 2.53 µM
  relative viability: 0.411
Tanzisertib + Trametinib; first compound 8 µM
  relative viability: 0.265
Tanzisertib + Crizotinib; first compound 0.08 µM
  relative viability: 0.903
Tanzisertib + Crizotinib; first compound 0.253 µM
  relative viability: 0.964
Tanzisertib + Crizotinib; first compound 0.8 µM
  relative viability: 0.931
Tanzisertib + Crizotinib; first compound 2.53 µM
  relative viability: 0.892
Tanzisertib + Crizotinib; first compound 8 µM
  relative viability: 0.559

## EMC-BAC-2
[1]; first compound 0.08 µM
  relative viability: 0.537
[1]; first compound 0.253 µM
  relative viability: 0.513
[1]; first compound 0.8 µM
  relative viability: 0.463
[1]; first compound 2.53 µM
  relative viability: 0.509
[1]; first compound 8 µM
  relative viability: 0.495
[2]; first compound 0.08 µM
  relative viability: 0.682
[2]; first compound 0.8 µM
  relative viability: 0.927
[2]; first compound 2.53 µM
  relative viability: 0.897
[2]; first compound 8 µM
  relative viability: 0.87
Tanzisertib + Trametinib; first compound 0.08 µM
  relative viability: 0.904
Tanzisertib + Trametinib; first compound 0.253 µM
  relative viability: 0.84
Tanzisertib + Trametinib; first compound 0.8 µM
  relative viability: 0.864
Tanzisertib + Trametinib; first compound 2.53 µM
  relative viability: 0.955
Tanzisertib + Trametinib; first compound 8 µM
  relative viability: 0.962
Tanzisertib + Crizotinib; first compound 0.08 µM
  relative viability: 0.799
Tanzisertib + Crizotinib; first compound 0.253 µM
  relative viability: 0.74
Tanzisertib + Crizotinib; first compound 0.8 µM
  relative viability: 0.705
Tanzisertib + Crizotinib; first compound 2.53 µM
  relative viability: 0.763
Tanzisertib + Crizotinib; first compound 8 µM
  relative viability: 0.747

## NCI-H520
[1]; first compound 0.08 µM
  relative viability: 0.274
[1]; first compound 0.253 µM
  relative viability: 0.201
[1]; first compound 0.8 µM
  relative viability: 0.227
[1]; first compound 2.53 µM
  relative viability: 0.227
[1]; first compound 8 µM
  relative viability: 0.239
[2]; first compound 0.08 µM
  relative viability: 0.763
[2]; first compound 0.8 µM
  relative viability: 0.897
[2]; first compound 2.53 µM
  relative viability: 0.92
[2]; first compound 8 µM
  relative viability: 0.835
Tanzisertib + Trametinib; first compound 0.08 µM
  relative viability: 0.734
Tanzisertib + Trametinib; first compound 0.253 µM
  relative viability: 0.724
Tanzisertib + Trametinib; first compound 0.8 µM
  relative viability: 0.814
Tanzisertib + Trametinib; first compound 2.53 µM
  relative viability: 0.776
Tanzisertib + Trametinib; first compound 8 µM
  relative viability: 0.646
Tanzisertib + Crizotinib; first compound 0.08 µM
  relative viability: 0.862
Tanzisertib + Crizotinib; first compound 0.253 µM
  relative viability: 0.821
Tanzisertib + Crizotinib; first compound 0.8 µM
  relative viability: 0.745
Tanzisertib + Crizotinib; first compound 2.53 µM
  relative viability: 0.68
Tanzisertib + Crizotinib; first compound 8 µM
  relative viability: 0.863

## NCI-H1755
[1]; first compound 0.08 µM
  relative viability: 0.434
[1]; first compound 0.253 µM
  relative viability: 0.453
[1]; first compound 0.8 µM
  relative viability: 0.433
[1]; first compound 2.53 µM
  relative viability: 0.44
[1]; first compound 8 µM
  relative viability: 0.439
[2]; first compound 0.08 µM
  relative viability: 1.03
[2]; first compound 0.8 µM
  relative viability: 0.973
[2]; first compound 2.53 µM
  relative viability: 1.07
[2]; first compound 8 µM
  relative viability: 1
Tanzisertib + Trametinib; first compound 0.08 µM
  relative viability: 0.791
Tanzisertib + Trametinib; first compound 0.253 µM
  relative viability: 0.831
Tanzisertib + Trametinib; first compound 0.8 µM
  relative viability: 0.779
Tanzisertib + Trametinib; first compound 2.53 µM
  relative viability: 0.697
Tanzisertib + Trametinib; first compound 8 µM
  relative viability: 0.719
Tanzisertib + Crizotinib; first compound 0.08 µM
  relative viability: 0.85
Tanzisertib + Crizotinib; first compound 0.253 µM
  relative viability: 0.821
Tanzisertib + Crizotinib; first compound 0.8 µM
  relative viability: 0.863
Tanzisertib + Crizotinib; first compound 2.53 µM
  relative viability: 0.839
Tanzisertib + Crizotinib; first compound 8 µM
  relative viability: 0.777

## NCI-H1993
[1]; first compound 0.08 µM
  relative viability: 0.652
[1]; first compound 0.253 µM
  relative viability: 0.531
[1]; first compound 0.8 µM
  relative viability: 0.611
[1]; first compound 2.53 µM
  relative viability: 0.617
[1]; first compound 8 µM
  relative viability: 0.595
[2]; first compound 0.08 µM
  relative viability: 0.764
[2]; first compound 0.8 µM
  relative viability: 0.881
[2]; first compound 2.53 µM
  relative viability: 0.837
[2]; first compound 8 µM
  relative viability: 0.778
Tanzisertib + Trametinib; first compound 0.08 µM
  relative viability: 0.638
Tanzisertib + Trametinib; first compound 0.253 µM
  relative viability: 0.428
Tanzisertib + Trametinib; first compound 0.8 µM
  relative viability: 0.55
Tanzisertib + Trametinib; first compound 2.53 µM
  relative viability: 0.499
Tanzisertib + Trametinib; first compound 8 µM
  relative viability: 0.522
Tanzisertib + Crizotinib; first compound 0.08 µM
  relative viability: 0.855
Tanzisertib + Crizotinib; first compound 0.253 µM
  relative viability: 0.886
Tanzisertib + Crizotinib; first compound 0.8 µM
  relative viability: 0.891
Tanzisertib + Crizotinib; first compound 2.53 µM
  relative viability: 0.789
Tanzisertib + Crizotinib; first compound 8 µM
  relative viability: 0.789

## NCI-H23
[1]; first compound 0.08 µM
  relative viability: 0.479
[1]; first compound 0.253 µM
  relative viability: 0.53
[1]; first compound 0.8 µM
  relative viability: 0.512
[1]; first compound 2.53 µM
  relative viability: 0.493
[1]; first compound 8 µM
  relative viability: 0.514
[2]; first compound 0.08 µM
  relative viability: 1.15
[2]; first compound 0.8 µM
  relative viability: 1.34
[2]; first compound 2.53 µM
  relative viability: 1.49
[2]; first compound 8 µM
  relative viability: 1.22
Tanzisertib + Trametinib; first compound 0.08 µM
  relative viability: 0.389
Tanzisertib + Trametinib; first compound 0.253 µM
  relative viability: 0.357
Tanzisertib + Trametinib; first compound 0.8 µM
  relative viability: 0.418
Tanzisertib + Trametinib; first compound 2.53 µM
  relative viability: 0.367
Tanzisertib + Trametinib; first compound 8 µM
  relative viability: 0.419
Tanzisertib + Crizotinib; first compound 0.08 µM
  relative viability: 0.568
Tanzisertib + Crizotinib; first compound 0.253 µM
  relative viability: 0.553
Tanzisertib + Crizotinib; first compound 0.8 µM
  relative viability: 0.554
Tanzisertib + Crizotinib; first compound 2.53 µM
  relative viability: 0.601
Tanzisertib + Crizotinib; first compound 8 µM
  relative viability: 0.598
